From the CheMixHub viscosity set

Assay: xn = mol fraction of the nth substance listed

CCOCCO + CCCCCCCCCCCC
viscosity [mPa·s], 101.33 kPa
Details | x1 = 0.1001 | x1 = 0.1987 | x1 = 0.3009 | x1 = 0.3972 | x1 = 0.5014 | x1 = 0.5996 | x1 = 0.6933 | x1 = 0.7988 | x1 = 0.8984
298.15 K | 1.288 | 1.294 | 1.321 | 1.339 | 1.379 | 1.412 | 1.453 | 1.529 | 1.636
303.15 K | 1.171 | 1.174 | 1.195 | 1.223 | 1.256 | 1.284 | 1.317 | 1.387 | 1.465
308.15 K | 1.075 | 1.076 | 1.09 | 1.115 | 1.138 | 1.166 | 1.191 | 1.254 | 1.316
313.15 K | 0.986 | 0.987 | 0.997 | 1.02 | 1.045 | 1.063 | 1.082 | 1.139 | 1.191

CC(C)CCO + CCCCOC(C)=O
308 K, 101 kPa
Details | viscosity [mPa·s]
x2 = 0.0998 | 2.631
x2 = 0.2003 | 2.091
x2 = 0.3001 | 1.715
x2 = 0.3999 | 1.418
x2 = 0.4998 | 1.221
x2 = 0.5999 | 1.019
x2 = 0.6997 | 0.917
x2 = 0.8002 | 0.811
x2 = 0.9002 | 0.734

CNC(C)=O + COCCO
viscosity [mPa·s], 101.33 kPa
Details | 308.15 K | 313.15 K | 318.15 K
x1 = 0.0301 | 1.362 | 1.242 | 1.136
x1 = 0.0501 | 1.393 | 1.27 | 1.16
x1 = 0.0752 | 1.431 | 1.304 | 1.191
x1 = 0.1036 | 1.476 | 1.343 | 1.227
x1 = 0.1301 | 1.515 | 1.378 | 1.259
x1 = 0.17 | 1.574 | 1.432 | 1.307
x1 = 0.2032 | 1.624 | 1.477 | 1.348
x1 = 0.2501 | 1.696 | 1.541 | 1.404
x1 = 0.302 | 1.776 | 1.613 | 1.468
x1 = 0.4032 | 1.94 | 1.758 | 1.596
x1 = 0.5037 | 2.114 | 1.91 | 1.73
x1 = 0.6033 | 2.308 | 2.074 | 1.876
x1 = 0.65 | 2.409 | 2.16 | 1.95
x1 = 0.7021 | 2.526 | 2.259 | 2.038
x1 = 0.7503 | 2.641 | 2.357 | 2.124
x1 = 0.8032 | 2.775 | 2.477 | 2.227
x1 = 0.8524 | 2.908 | 2.594 | 2.328
x1 = 0.9035 | 3.061 | 2.724 | 2.439
x1 = 0.9301 | 3.145 | 2.795 | 2.5
x1 = 0.9702 | 3.277 | 2.913 | 2.597
